Laboratory results published in patent publication US9532957B2, “Method of stabilizing reduced coenzyme Q10” (Kaneka Corporation, priority 2001, dated 2017).

Assays:
[1] = Preliminary investigations on stabilization of reduced coenzyme Q10; type: physicochemical
[2] = Oxidation stability of reduced coenzyme Q10 ethanol solution with L-ascorbic acid, stirred in air at 50° C.; type: physicochemical; conditions: 1 part L-ascorbic acid per 100 parts solvent, after 50 hours
Method: In the examples, purity of reduced coenzyme Q10 and the weight ratio of reduced coenzyme Q10/oxidized coenzyme Q10 were determined by the HFLC analysis specified below. The reduced coenzyme Q10 purity values as determined, however, are by no means indicative of the limit purity value attainable in accordance with the present invention. Likewise, the ratio of the reduced coenzyme Q10 in the weight ratio of reduced coenzyme Q10/oxidized coenzyme Q10 values obtained never indicates the upper limit to that ratio.
Column; SYMMETRY C18 (product of Waters), 250 mm (in length), 4.6 mm (in inside diameter): mobile phase; C2H5OH/CH3OH=4/3 (v/v); detection wavelength; 210 nm; flow rate; 1 ml/min: retention time of reduced coenzyme Q10; 9.1 min: retention time of oxidized coenzyme Q10; 13.3 min.
Using the reduced coenzyme Q10 crystal obtained in Example 1, an ethanol solution containing 5 parts by weight of reduced coenzyme Q10 relative to 100 parts by weight of ethanol was prepared. To this ethanol solution, L-ascorbic acid was added so that 1 part by weight of L-ascorbic acid was contained relative to 100 parts by weight of the solvent (20 parts by weight relative to 100 parts by weight of reduced coenzyme Q10), and the solution was stirred in air at 50° C. […]

stabilization effect on reduced coenzyme Q10 ([1]; preliminary investigations)	X: The residual ratio of ascorbic acid [2]	stabilization effect on reduced coenzyme Q10 ([1]; used in combination with polyhydric alcohols having 3 or more OH, such as glycerine)	Compound
does not have the effect			Vitamin E [reference compound]
	85.2%		O=C1O[C@H]([C@@H](O)CO)C(O)=C1O [L-ascorbic acid]
has a stabilization effect		very poor	O=C1O[C@H]([C@@H](O)CO)C(O)=C1O [vitamin C]
